# Source: PubChem BioAssay (NCI)
#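 The compound was tested at five concentrations on cells cultured in 96-well plates, with a 48-hour exposure period. The concentration for full growth arrest is given as TGI.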
# Columns and labels:
# Assay in all cases: growth of human tumour cells (NCI), 48 h
# 786-0 renal = test system: 786-0 renal
# HL-60(TB) leukemia = test system: HL-60(TB) leukemia
# NCI-H460 lung = test system: NCI-H460 lung
# NCI/ADR-RES ovarian = test system: NCI/ADR-RES ovarian
# HOP-92 NSCLC = test system: HOP-92 NSCLC
# SK-OV-3 ovarian = test system: SK-OV-3 ovarian
# MDA-N = test system: MDA-N
# COLO 205 colon = test system: COLO 205 colon
# CAKI-1 renal = test system: CAKI-1 renal
# LOX IMVI melanoma = test system: LOX IMVI melanoma
# MCF7 breast = test system: MCF7 breast
# UO-31 renal = test system: UO-31 renal
# SK-MEL-28 melanoma = test system: SK-MEL-28 melanoma
# SK-MEL-5 melanoma = test system: SK-MEL-5 melanoma
# SNB-75 CNS = test system: SNB-75 CNS
# MOLT-4 leukemia = test system: MOLT-4 leukemia
# MDA-MB-435 = test system: MDA-MB-435
# NCI-H226 lung = test system: NCI-H226 lung
# IGROV1 ovarian = test system: IGROV1 ovarian
# HT29 colon = test system: HT29 colon
# SR leukemia = test system: SR leukemia
# BT-549 breast = test system: BT-549 breast
# A549 NSCLC = test system: A549 NSCLC
# UACC-62 melanoma = test system: UACC-62 melanoma
# SF-539 CNS = test system: SF-539 CNS
# HS 578T breast = test system: HS 578T breast
# NCI-H23 lung = test system: NCI-H23 lung
# NCI-H522 lung = test system: NCI-H522 lung
# ACHN renal = test system: ACHN renal
# K-562 leukemia = test system: K-562 leukemia
# SNB-19 CNS = test system: SNB-19 CNS
# OVCAR-5 ovarian = test system: OVCAR-5 ovarian
# RXF 393 renal = test system: RXF 393 renal
# A498 renal = test system: A498 renal
# M14 melanoma = test system: M14 melanoma
# RPMI-8226 leukemia = test system: RPMI-8226 leukemia
# OVCAR-3 ovarian = test system: OVCAR-3 ovarian
# UACC-257 melanoma = test system: UACC-257 melanoma
# HCT-15 colon = test system: HCT-15 colon
# SN12C renal = test system: SN12C renal
# OVCAR-4 ovarian = test system: OVCAR-4 ovarian
# HCT-116 colon = test system: HCT-116 colon
# CCRF-CEM leukemia = test system: CCRF-CEM leukemia
# HOP-62 NSCLC = test system: HOP-62 NSCLC
# EKVX NSCLC = test system: EKVX NSCLC
# MALME-3M melanoma = test system: MALME-3M melanoma
# SK-MEL-2 melanoma = test system: SK-MEL-2 melanoma
# DU-145 prostate = test system: DU-145 prostate
# SW-620 colon = test system: SW-620 colon
# SF-295 CNS = test system: SF-295 CNS
# T-47D breast = test system: T-47D breast
# HCC-2998 colon = test system: HCC-2998 colon
# PC-3 prostate = test system: PC-3 prostate
# KM12 colon = test system: KM12 colon
# OVCAR-8 ovarian = test system: OVCAR-8 ovarian
# SF-268 CNS = test system: SF-268 CNS
structure (smiles),measurement,setting,value
Cc1ccc([N+](=O)[O-])cc1S(=O)(=O)Nc1ccc(C2=NNC(c3cccs3)C2)cc1 (stereo unspecified),TGI,786-0 renal,> 100 µM
same,TGI,HL-60(TB) leukemia,50.9 µM
same,TGI,NCI-H460 lung,> 100 µM
same,TGI,NCI/ADR-RES ovarian,94.6 µM
same,TGI,HOP-92 NSCLC,> 100 µM
same,TGI,SK-OV-3 ovarian,89.4 µM
same,TGI,MDA-N,> 100 µM
same,TGI,COLO 205 colon,35.6 µM
same,TGI,CAKI-1 renal,> 100 µM
same,TGI,LOX IMVI melanoma,> 100 µM
same,TGI,MCF7 breast,47.8 µM
same,TGI,UO-31 renal,> 100 µM
same,TGI,SK-MEL-28 melanoma,> 100 µM
same,TGI,SK-MEL-5 melanoma,46.3 µM
same,TGI,SNB-75 CNS,> 100 µM
same,TGI,MOLT-4 leukemia,92.9 µM
same,TGI,MDA-MB-435,> 100 µM
same,TGI,NCI-H226 lung,> 100 µM
same,TGI,IGROV1 ovarian,> 100 µM
same,TGI,HT29 colon,> 100 µM
same,TGI,SR leukemia,78.8 µM
same,TGI,BT-549 breast,83.8 µM
same,TGI,A549 NSCLC,> 100 µM
same,TGI,UACC-62 melanoma,34.1 µM
same,TGI,SF-539 CNS,> 100 µM
same,TGI,HS 578T breast,> 100 µM
same,TGI,NCI-H23 lung,> 100 µM
same,TGI,NCI-H522 lung,> 100 µM
same,TGI,ACHN renal,82.9 µM
same,TGI,K-562 leukemia,> 100 µM
same,TGI,SNB-19 CNS,> 100 µM
same,TGI,OVCAR-5 ovarian,> 100 µM
same,TGI,RXF 393 renal,38.7 µM
same,TGI,A498 renal,93.1 µM
same,TGI,M14 melanoma,68.8 µM
same,TGI,RPMI-8226 leukemia,> 100 µM
same,TGI,OVCAR-3 ovarian,43.2 µM
same,TGI,UACC-257 melanoma,> 100 µM
same,TGI,HCT-15 colon,> 100 µM
same,TGI,SN12C renal,90.6 µM
same,TGI,OVCAR-4 ovarian,> 100 µM
same,TGI,HCT-116 colon,63.5 µM
same,TGI,CCRF-CEM leukemia,> 100 µM
same,TGI,HOP-62 NSCLC,60.2 µM
same,TGI,EKVX NSCLC,64.2 µM
same,TGI,MALME-3M melanoma,> 100 µM
same,TGI,SK-MEL-2 melanoma,> 100 µM
same,TGI,DU-145 prostate,> 100 µM
same,TGI,SW-620 colon,> 100 µM
same,TGI,SF-295 CNS,63.9 µM
same,TGI,T-47D breast,43.4 µM
same,TGI,HCC-2998 colon,> 100 µM
same,TGI,PC-3 prostate,> 100 µM
same,TGI,KM12 colon,76.1 µM
same,TGI,OVCAR-8 ovarian,> 100 µM
same,TGI,SF-268 CNS,> 100 µM
